Results reported in US9504730B2, “Method of achieving a thymosin beta 4 concentration in a human patient” (REGENERX BIOPHARMACEUTICALS, INC., priority 2010, dated 2016).

Key:
[1] = Thymosin dosage regimens calculated with Formula II; design: species or system human
Description: A physician or health care provider may first determine a desired concentration of thymosin beta 4 (or a desired increase in concentration of thymosin beta 4 from an existing level) in a body portion of a live human patient in need of treatment. The physician or health care provider may then calculate the dosage necessary to achieve the desired concentration using the formula: C=(A)D·t^−B (Formula I), or D=C/(A)(t^−B) (Formula IA), wherein C is the predetermined thymosin beta 4 concentration to be provided in ng/mL, D is the dosage of thymosin beta 4 administered in mg, t is the time elapsed after administration of an initial dosage of thymosin beta 4 in hours (t is treated as a constant in this equation), A is about 30 to about 38, and B is about 0.5 to about 1. According to one embodiment, the formula is C=(35.6)D·t^−0.754 (Formula II). Time, t, may be 1, and D may equal C/35.6.
A patient in need of thymosin beta 4 treatment with a concentration of 10,000 ng/mL exogenous thymosin beta 4 is administered thymosin beta 4 according to a dosage schedule wherein D and t are calculated using C=(35.6)D*t[…].
A patient in need of thymosin beta 4 treatment with a concentration of 10,000 ng/mL exogenous thymosin beta 4 with a 1-hour dosing frequency is administered D=C/(A)t^−B=10,000 ng/mL/(35.6)(1^−0.75 h)=281 mg thymosin beta 4. […]

[2] = Analysis of TB4 concentration data from human patients administered different dosages of thymosin beta 4; type: in vivo; design: key to whether first dose brings TB4 concentration that high: ~: indicates first dose does not bring TB4 concentration that high; *: indicates the most efficient treatment (as determined by total required)
Description: The above formulas were developed by analysis of data from human patients who had been administered different dosages of thymosin beta 4. The frequency of dosing needed between dosages to achieve the desired concentration over time, multiplied by the dosage, gave the total drug administered in a 24-hour period. The dosage that maintained the required concentration with the lowest total drug administered was termed the most efficient. See Exampe I, below.
Based on the data collected, concentrations of TB4 in the body portion follow (especially soon after administration, with a decreasing correlation over time) a power function. An estimation of the concentration of thymosin beta 4 at 1 hour was determined using this model with an average within 10% of the experimental mean for the concentrations tested. The concentrations in the tested patients at 1 hour give an approximate range that can be efficiently maintained because the concentrations at about 1 hour are approximately 15% of the initial concentration (mean 14.7%, median 13.3%). The concentration found in human patients at 5 minutes after initial administration intravenously was defined as the initial concentration, and as Cmax, i.e. the maximum concentration achieved after administration of a dose. For the calculations made in the studies, the range of concentration which is the effective and desired dose was assumed to be 5-25% of this initial concentration (Cmax). In general, intervals between intravenous treatment times of about an hour also are the most reliably efficient in achieving and maintaining a particular concentration. Therefore, in certain embodiments, when calculating dosage using Formula I or Formula II, t may equal about 1. The concentration which is achieved with a particular dosage of thymosin beta 4 at 5 minutes (Cmax) can be found using Formula I by calculating C using the particular dosage (D) and 0.083 hours (5 minutes) as t.
Using Formula II, concentration at 1 hour is (35.6)D. In certain embodiments, the formula gives the concentration with an average error of about 10%, calculated against the experimental mean from in vivo patient data. Formulas I and II where t=1, therefore, provide a reasonable estimation of a concentration that is an acceptable and effective concentration to provide therapeutic treatment.
Treatment regimens to maintain a given dose (data summary): […]

[3] = Concentration > 1000 ng/mL in blood, infusion dosage 42 mg per dose
[4] = Concentration > 1000 ng/mL in blood, infusion dosage 140 mg per dose
[5] = Concentration > 1000 ng/mL in blood, infusion dosage 420 mg per dose
[6] = Concentration > 1000 ng/mL in blood, infusion dosage 1260 mg per dose
[7] = Concentration > 5000 ng/mL in blood, infusion dosage 42 mg per dose
[8] = Concentration > 5000 ng/mL in blood, infusion dosage 140 mg per dose
[9] = Concentration > 5000 ng/mL in blood, infusion dosage 420 mg per dose
[10] = Concentration > 5000 ng/mL in blood, infusion dosage 1260 mg per dose
[11] = Concentration > 10000 ng/mL in blood, infusion dosage 42 mg per dose
[12] = Concentration > 10000 ng/mL in blood, infusion dosage 140 mg per dose
[13] = Concentration > 10000 ng/mL in blood, infusion dosage 420 mg per dose
[14] = Concentration > 10000 ng/mL in blood, infusion dosage 1260 mg per dose
[15] = Concentration > 20000 ng/mL in blood, infusion dosage 140 mg per dose
[16] = Concentration > 20000 ng/mL in blood, infusion dosage 420 mg per dose
[17] = Concentration > 20000 ng/mL in blood, infusion dosage 1260 mg per dose
[18] = Concentration > 40000 ng/mL in blood, infusion dosage 420 mg per dose
[19] = Concentration > 40000 ng/mL in blood, infusion dosage 1260 mg per dose
[20] = human patients, intravenous, initial concentration = 5 minutes after administration (Cmax)

**Q.** What does the source list for CC[C@H](C)[C@H](NC(=O)[C@H](CCC(=O)O)NC(=O)[C@H](C)NC(=O)[C@H](CCSC)NC(=O)[C@H](CC(=O)O)NC(=O)[C@@H]1CCCN1C(=O)[C@H](CCCCN)NC(=O)[C@H](CC(=O)O)NC(=O)[C@H](CO)NC(C)=O)C(=O)N[C@@H](CCC(=O)O)C(=O)N[C@@H](CCCCN)C(=O)N[C@@H](Cc1ccccc1)C(=O)N[C@@H](CC(=O)O)C(=O)N[C@@H](CCCCN)C(=O)N[C@@H](CO)C(=O)N[C@@H](CCCCN)C(=O)N[C@@H](CC(C)C)C(=O)N[C@@H](CCCCN)C(=O)N[C@@H](CCCCN)C(=O)N[C@H](C(=O)N[C@@H](CCC(=O)O)C(=O)N[C@H](C(=O)N[C@@H](CCC(N)=O)C(=O)N[C@@H](CCC(=O)O)C(=O)N[C@@H](CCCCN)C(=O)N[C@@H](CC(N)=O)C(=O)N1CCC[C@H]1C(=O)N[C@@H](CC(C)C)C(=O)N1CCC[C@H]1C(=O)N[C@@H](CO)C(=O)N[C@@H](CCCCN)C(=O)N[C@@H](CCC(=O)O)C(=O)N[C@H](C(=O)N[C@H](C(=O)N[C@@H](CCC(=O)O)C(=O)N[C@@H](CCC(N)=O)C(=O)N[C@@H](CCC(=O)O)C(=O)N[C@@H](CCCCN)C(=O)N[C@@H](CCC(N)=O)C(=O)N[C@@H](C)C(=O)NCC(=O)N[C@@H](CCC(=O)O)C(=O)N[C@@H](CO)C(=O)O)[C@@H](C)CC)[C@@H](C)O)[C@@H](C)O)[C@@H](C)O [thymosin beta 4, Thymosin beta 4]?
**A.** time t between dosage forms calculated for the desired concentration ([1]; 10,000 ng/mL exogenous thymosin beta 4, 200 mg unit dosage forms): 0.637 h; dosage D calculated for the desired concentration ([1]; 10,000 ng/mL exogenous thymosin beta 4, 1-hour dosing frequency): 281 mg; A of Formula II C=(A)D·t^−B (concentration at 1 hour is (35.6)D) ([2]; C in ng/mL, D in mg, t in hours, developed by analysis of human patient data): 35.6; Frequency of administration [2, 3]: 2 h; Total TB4 required for 24 hour treatment [2, 3]: 504 mg; Frequency of administration [2, 4]: 3 h; Total TB4 required for 24 hour treatment [2, 4]: 1120 mg; Frequency of administration [2, 5]: 6 h; Total TB4 required for 24 hour treatment [2, 5]: 1680 mg; Frequency of administration [2, 6]: 9 h; Total TB4 required for 24 hour treatment [2, 6]: 3360 mg; Frequency of administration [2, 7]: 0.167 h; Total TB4 required for 24 hour treatment [2, 7]: 6048 mg; Frequency of administration [2, 8]: 1 h; Total TB4 required for 24 hour treatment [2, 8]: 5040 mg; Frequency of administration [2, 9]: 2 h; Total TB4 required for 24 hour treatment [2, 9]: 5040 mg; Frequency of administration [2, 10]: 4 h; Total TB4 required for 24 hour treatment [2, 10]: 7560 mg; Frequency of administration [2, 11]: 0.083 h; Total TB4 required for 24 hour treatment [2, 11]: 12096 mg; Frequency of administration [2, 12]: 0.333 h; Total TB4 required for 24 hour treatment [2, 12]: 10080 mg; Frequency of administration [2, 13]: 1 h; Total TB4 required for 24 hour treatment [2, 13]: 10080 mg; Frequency of administration [2, 14]: 3 h; Total TB4 required for 24 hour treatment [2, 14]: 10080 mg; whether first dose brings TB4 concentration that high ([2]; Concentration > 20000 ng/mL in blood, infusion dosage 42 mg per dose): ~42; Frequency of administration [2, 15]: 0.167 h; Total TB4 required for 24 hour treatment [2, 15]: 20160 mg; Frequency of administration [2, 16]: 0.667 h; Total TB4 required for 24 hour treatment [2, 16]: 15120 mg; Frequency of administration [2, 17]: 2 h; Total TB4 required for 24 hour treatment [2, 17]: 15120 mg; whether first dose brings TB4 concentration that high ([2]; Concentration > 40000 ng/mL in blood, infusion dosage 42 mg per dose): ~42; whether first dose brings TB4 concentration that high ([2]; Concentration > 40000 ng/mL in blood, infusion dosage 140 mg per dose): ~140; Frequency of administration [2, 18]: 0.167 h; Total TB4 required for 24 hour treatment [2, 18]: 60480 mg; Frequency of administration [2, 19]: 1 h; Total TB4 required for 24 hour treatment [2, 19]: 30240 mg; average concentration at 1 hour after administration, % of Cmax (SD) ([2]; human patients, experimental data, Cmax = 5-minute concentration): 15.7%±1.32%; concentration at about 1 hour as % of the initial concentration, mean [2, 20]: 14.7%; concentration at about 1 hour as % of the initial concentration, median [2, 20]: 13.3%; concentration at about 1 hour as % of the initial concentration ([2]; human patients, intravenous, initial concentration = 5 minutes after administration (Cmax), approximate): approximately 15%; Cmax ([2]; human, in vivo, intravenous, 6 mg/kg to 18 mg/kg dosing (420 mg and 1260 mg unit dose, respectively), read-out: Cmax levels): 90 to 350 µg/mL
